Experimental data as given in patent US20110046070A1, “GENE EXPRESSION INHIBITOR SELECTIVE FOR MATRIX METALLOPROTEINASE-9 GENE” (priority 2008, published 2011).

Assays:
[1] = system: double-stranded DNA of the region from −77 to −70 containing the AP-1 binding site of the human matrix metalloproteinase-9 promoter; assay: Gel shift assay (EMSA), AP-1 site oligonucleotide; settings: 10 μM polyamide, 0.6 μM fluorescently labeled double-stranded DNA, 37° C., 1 hour
Procedure: (§1) Oligonucleotides were synthesized and annealed to form 2 kinds of double-stranded oligonucleotides corresponding to the promoter base pairs against HMMP9AP1 and HMMP9NFκβ. One single-stranded oligonucleotide was labeled with FITC and hybridized with another single-stranded oligonucleotide as a complementary sequence to prepare double-stranded DNA. Specifically, nucleotides having the following nucleotide sequences were prepared: HMMP9AP1 (match) sense primer (5′[…]) (SEQ ID NO: 8) corresponding to the region from −77 to −70 containing the AP-1 binding site; this sequence plus 2-base mutation, i.e., HMMP9AP1 oligo DNA (mismatch 1) sense primer (5′[…]) (SEQ ID NO: 9); HMMP9NFκβ (match) sense primer (5′[…]) (SEQ ID NO: 10) containing the region from −605 to −599 containing the NFκβ binding site; this sequence plus 2-base mutation, i.e., HMMP9NFκβ (mismatch 1) sense primer (5′[…]) (SEQ ID NO: 11); and antisense primers respectively complementary to these 4 primers. […] The obtained complexes were electrophoresed on a 20% polyacrylamide gel, and the mobilities of the fluorescently labeled double-stranded oligonucleotides were analyzed with a fluorescent image analyzer (FUJIFILM, LAS-4000, Tokyo, Japan). […]

HeLa cells = assay: Invasion assay into matrigel, HeLa; format: cell-based, human; settings: various concentrations
Procedure: Cell invasion assay was conducted using a 24-well cell culture BioCoat matrigel invasion chamber (BD Biosciences, Discovery Labware, Bedford, Mass., USA). MDA-MB-231 cells (1×10^3 cells/well) or HeLa cells (1×10^3 cells/well) were suspended in an RPMI1640 or DMEM medium containing 0.1% FBS and added to the upper chamber. An RPMI1640 or DMEM medium containing 5% FBS was added to the lower chamber. Then, the cells were cultured at 37° C. for 22 hours in a 5% CO2 environment. Noninvasive cells remaining on the membrane were wiped off using a cotton swab. Invasion cells were fixed and stained with a Diff-Quik kit. The number of cells invading the membrane was determined in mean±standard deviation from a total of 3 membranes by counting in 10 fields of view per membrane using an optical microscope (200× magnification).

[2] = system: MMP-9 gelatin degradation activity in culture supernatants of MDA-MB-231 cells; assay: Zymography assay using gelatin as a substrate; format: cell-based, human; settings: 48 hours, MDA-MB-231 supernatant; for inhibition at 1 µM: read-out: inhibition of gelatin degradation activity compared with the control
Procedure: Proteins collected from culture supernatants of MDA-MB-231 cells were assayed using Novex (registered trademark) zymogram gelatin gel and XCell SureLock™ Mini-cell (Invitrogen Life Technologies, Corp.). The polyamides of the present invention were separately added at various concentrations to 2.5×10^5 cells. After 48-hour incubation, the supernatants were collected. Proteins from each sample were mixed with Novex (registered trademark) Tris-glycine SDS sample buffer (2×) and separated on a 10% zymogram gelatin gel. The gel was washed with a renaturing buffer and a developing buffer according to the manufacturer's manual. Then, the gel was digitized.

[3] = system: MMP-9 protein in MDA-MB-231 cells; assay: Western blotting analysis (protein assay); format: cell-based, human; settings: MDA-MB-231, 48 hours, various concentrations, vs DMSO control
Procedure: MDA-MB-231 cells were treated with the polyamide of the present invention at various concentrations. 48 hours after the treatment, the cells were collected, and the total cell lysate was prepared into an extraction buffer containing a protease inhibition cocktail (Boehringer Ingelheim GmbH, Germany) containing 50 mM Tris-HCl, 150 mM NaCl, 10 mM EDTA and 1% Triton-X. Homogenates were centrifuged at 15,000×g at 4° C. for 10 minutes. The supernatants were collected, and protein concentrations were measured. The protein sample (10 μg) was electrophoresed on NuPAGE+™ 10% Bis-Tris gel (Invitrogen Life Technologies, Corp.) and transferred to a PVDF (polyvinylidene difluoride) membrane (Millipore, Bedford, Mass.). The PVDF membrane was incubated overnight with rabbit anti-MMP-9 polyclonal antibodies (Calbiochem (registered trademark) Biosciences, Inc. La Jolla, Calif.) (1:500) obtained from Calbiochem (registered trademark). The PVDF membrane was washed three times with a Tris buffer containing 0.2% Tween 20. The immunoconjugated proteins were identified through reaction with peroxidase-conjugated goat antibodies against rabbit IgG (MP Biomedicals, Inc.) and subsequently amplified by chemiluminescence detection (Amersham, Piscataway, N.J.).

[4] = system: double-stranded DNA of the region from −605 to −599 containing the NFκβ binding site of the human matrix metalloproteinase-9 promoter; assay: Gel shift assay (EMSA), NFκβ site oligonucleotide; settings: 10 μM polyamide, 0.6 μM fluorescently labeled double-stranded DNA, 37° C., 1 hour
Procedure: as §1

[5] = system: binding of NF-κβ protein with the MMP-9 promoter region; assay: Immunoprecipitation/PCR assay with anti-NF-κβ antibodies; format: cell-based, human; settings: 1 μM, 4 hours, MDA-MB-231 and HeLa cells
Procedure: Immunoprecipitation/PCR assay with anti-NF-κβ antibodies was conducted using MDA-MB-231 and HeLa cells. The MDA-MB-231 and HeLa cells were separately inoculated to a 100-mm culture dish and cultured for 24 hours in […] of Dulbecco's modified Eagle medium (DMEM) containing 10% fetal bovine serum (Invitrogen) and then with 1 μM match polyamide HMMP9NFκβ or 1 μM mismatch polyamide (shown in FIG. 26) for 4 hours. Protein-DNA complexes were fixed in 1% formaldehyde, reacted with specific NF-κB p65 antibodies and nonspecific rabbit immunoglobulin G antibodies, and collected by precipitation as antibody-protein-DNA complexes using Protein A beads. From the protein-DNA complexes, DNA was separated through reaction with 5 M NaCl and subjected to amplification reaction using PCR primers flanking the NFκβ binding sequence of MMP9. The NFκβ-bound DNA of an MMP9 gene promoter region is identified as a PCR product.
An MMP-9 promoter region from −657 to −484 was amplified using PCR primers (forward: 5′-TGTCCCTTTACTGCCCTGA-3′ (SEQ ID NO: 20) and reverse: 5′-[…]-3′ (SEQ ID NO: 21)) (Schwingshackl A, Duszyk M, Brown N, Moqbel R. HμMan eosinophils release matrix metalloproteinase-9 on stimulation with TNF-α. J Allergy Clin Immunol 104: 983-989, 1999).

binding to target double-stranded DNA (mobility versus lanes containing only DS) [1]	binding to target double-stranded DNA (mobility versus lanes containing only DS) [4]	NF-κβ p65-NF-κβ binding region complex of the MMP-9 promoter in immunoprecipitation with anti-NF-κβ p65 antibodies [5]	Structure (SMILES)	invasion of HeLa cells into matrigel (HeLa cells)	inhibition of gelatin degradation activity (enzymatic activity of MMP-9) ([2]; 10 μM)	inhibition at 1 µM ([2]; Homo sapiens) [%]	expression of MMP-9 protein [3]	inhibition at 10 µM ([2]; Homo sapiens, 10 μM, read-out: inhibition of gelatin degradation activity (enzymatic activity of MMP-9)) [%]
lower mobility			CC(=O)Nc1cn(C)c(C(=O)Nc2cc(C(=O)NCCC(=O)Nc3cn(C)c(C(=O)Nc4cc(C(=O)Nc5cc(C(=O)NCCCC(=O)Nc6cn(C)c(C(=O)Nc7cn(C)c(C(=O)Nc8cc(C(=O)NCCC(=O)Nc9cn(C)c(C(=O)Nc%10cc(C(=O)NCCC(=O)NCCCN(C)C)n(C)c%10)n9)n(C)c8)n7)n6)n(C)c5)n(C)c4)n3)n(C)c2)n1 [HMMP9AP1]	inhibited the invasion activities	almost completely	50	remarkably inhibited	
	lower mobility	not detected	CC(=O)Nc1cc(C(=O)Nc2cc(C(=O)NCCC(=O)Nc3cc(C(=O)Nc4cc(C(=O)NCCCC(=O)Nc5cn(C)c(C(=O)Nc6cn(C)c(C(=O)NCCC(=O)Nc7cc(C(=O)Nc8cc(C(=O)NCCC(=O)NCCCN(C)C)n(C)c8)n(C)c7)n6)n5)n(C)c4)n(C)c3)n(C)c2)n(C)c1 [HMMP9NFκβ]	invasion into matrigel decreases in an HMMP9NFκβ concentration-dependent manner		62	decreased in an HMMP9NFκβ concentration-dependent manner	82
